This passage reports IC50 results from ChEMBL document CHEMBL2016499, “Monoenomycin: A Simplified Trienomycin A Analogue that Manifests Anticancer Activity” (ACS Med Chem Lett, 2011).

The subject of one experiment is HeLa. Briefly: Cytotoxicity against human HeLa cells at 72 hrs by MTS assay. The format is functional, cell-based. On the technique in general: Tetrazolium assays rely on reduction of a dye to a coloured formazan, in cell work by metabolically active cells.
In another experiment the test system is MCF7. Briefly: Cytotoxicity against human MCF7 cells at 72 hrs by MTS assay. Conditions: MCF7, 72 h. It is filed as functional, cell-based.

As a reminder, the IC50 is the concentration that inhibits the measured activity by half. On to `COc1cc2cc(c1)NC(=O)CCCCCCC=CC[C@H](OC(=O)[C@@H](Cc1ccccc1)NC(=O)C1CCCCC1)CC/C(C)=C/CC2` (mixture of isomers), for which the values for the 50% inhibitory concentration (IC50) in the experiment with HeLa and in the experiment on MCF7 were 4600 nM and 5100 nM, respectively.
In turn, `CO[C@H]1/C=C/C=C/C=C/C[C@H](OC(=O)[C@@H](C)NC(=O)C2CCCCC2)[C@H](C)[C@@H](O)/C(C)=C\CCc2cc(O)cc(c2)NC(=O)C1` [TRIENOMYCIN A] displayed an IC50 in the experiment with HeLa of 128 nM.
For the compound `COc1cc2cc(c1)NC(=O)CCCCCCC=CC[C@H](OC(=O)[C@H](C)NC(=O)C1CCCCC1)CC/C(C)=C/CC2` (mixture of isomers), the IC50 turned out to be 1700 nM in the experiment on HeLa and 1900 nM with MCF7.
`COc1cc2cc(c1)NC(=O)CCCCCCC=CC[C@H](OC(=O)[C@@H](C)NC(=O)C1CCCCC1)CC/C(C)=C\CC2` (mixture of isomers): the half-maximal inhibitory concentration (IC50) in the experiment on HeLa and in the experiment with MCF7 was greater than 100000 nM in each case.
As for `COc1cc2cc(c1)NC(=O)CCCCCCC=CC[C@H](OC(=O)[C@@H](C)NC(=O)C1CCCCC1)CC/C(C)=C/CC2` (mixture of isomers), the IC50 was 470 nM with HeLa and 530 nM in the experiment with MCF7.
In the same order, the values of `COc1cc2cc(c1)NC(=O)CCCCCCC=CC[C@H](OC(=O)[C@@H](C)NC(=O)C1CCCC1)CC/C(C)=C/CC2` (mixture of isomers) are 1600 nM and 720 nM.
In the case of `COc1cc2cc(c1)NC(=O)CCCCCCC=CC[C@H](OC(=O)[C@@H](CC(C)C)NC(=O)C1CCCCC1)CC/C(C)=C/CC2` (mixture of isomers), the half-maximal inhibitory concentration (IC50) in the experiment on HeLa and with MCF7 was greater than 100000 nM each time.
For `COC1=C2C[C@@H](C)C[C@H](OC)[C@H](O)[C@@H](C)/C=C(\C)[C@H](OC(N)=O)[C@@H](OC)/C=C\C=C(/C)C(=O)NC(=CC1=O)C2=O` [GELDANAMYCIN], the half-inhibitory concentration (IC50) is greater than 5000 nM in the experiment with HeLa and 53 nM with MCF7.
For `COc1cc2cc(c1)NC(=O)CCCCCCC=CC[C@H](OC(=O)CNC(=O)C1CCCCC1)CC/C(C)=C/CC2` (mixture of isomers), the IC50 stood at 13000 nM in the experiment with HeLa and 12000 nM in the experiment on MCF7.
In the same order, the values of `COc1cc2cc(c1)NC(=O)CCCCCCC=CC[C@H](OC(=O)[C@H](NC(=O)C1CCCCC1)C(C)C)CC/C(C)=C/CC2` (mixture of isomers) are 9100 nM and 1000 nM.
On to `COc1cc2cc(c1)NC(=O)CCCCCCC=CC[C@H](OC(=O)[C@@H](C)NC(C)=O)CC/C(C)=C/CC2` (mixture of isomers), for which the half-inhibitory concentration (IC50) in the experiment on HeLa was determined as 2500 nM; with MCF7 it was 1700 nM.
